From patent US12110523B2, “Reagents and methods for esterification” (Wisconsin Alumni Research Foundation, priority 2015, dated 2024)

Columns and labels:
[1] = acetonitrile and acetonitrile/aqueous buffer (3:1 v/v); cited from earlier work
[2] = molecular target: T1, RNase A (Bos taurus, UniProt P61823); settings: at 10 eq; of eleven carboxylates; cited from earlier work
T1 sequence (P61823 27-150): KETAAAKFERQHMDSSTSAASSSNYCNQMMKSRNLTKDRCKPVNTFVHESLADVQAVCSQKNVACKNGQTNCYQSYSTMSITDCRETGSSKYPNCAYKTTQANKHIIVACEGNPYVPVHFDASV

[3] = test system: CHO K1 cells; test: Internalization of esterified GFP by CHO K1 cells (flow cytometry, confocal microscopy); assay type: cell-based, Chinese hamster; settings: 15 μM GFP, 37° C., 2 h, versus unlabeled GFP
Excerpt: FIG. 8 is a graph showing quantification of internalization of labeled versus unlabeled GFP by CHO K1 cells using flow cytometry measuring median fluorescence intensity. Single cells were sorted based on forward scatter-side scatter measurements, and live cells were sorted using 7AAD (7-amino-actinomycin D) stain.
FIGS. 9A-C illustrate microscopy images of uptake of esterified GFP (green) by CHO K1 cells. FIG. 9A: Not esterified. FIG. 9B: Esterified with α-diazo-4-methylphenyl-N-propargylacetamide. FIG. 9C: Esterified with α-diazo-4-methylphenyl-N,N-dimethylacetamide. Cell nuclei are stained with Hoechst 33342 (blue).
Chinese hamster ovary (CHO) K1 cells were incubated at 37° C. for 2 h in F-12K medium (which was supplemented with penicillin/streptomycin) containing either unlabeled or labeled GFP (15 μM). […] Individual cells were imaged by confocal microscopy for two of the diazo compounds.

[4] = measured in dimethylsulfoxide; cited from earlier work

| SMILES | formation of the desired ester with carboxylic acids [1] | uptake of GFP esterified with the diazo compound into CHO K1 cells [3] | other results |
| --- | --- | --- | --- |
| [N-]=[N+]=C1c2ccccc2-c2ccccc21 [9-diazofluorene] | gave the desired ester in aqueous medium | – | average number of carboxylates labeled in RNase A [2]: three |
| CNC(=O)C(=[N+]=[N-])c1ccc(C)cc1 [Diazo compound 11, α-diazo-4-methylphenyl-N-methylacetamide] | – | enhanced | – |
| Cc1ccc(C(=[N+]=[N-])C(=O)N(C)C)cc1 [Diazo compound 12, α-diazo-4-methylphenyl-N,N-dimethylacetamide] | – | enhanced | – |
| CCOC(=O)C(=[N+]=[N-])C(=O)OCC [diethyl 2-diazomalonate] | unreactive | – | – |
| CCOC(=O)CC(=O)OCC [diethylmalonate] | – | – | pKa [4]: 16.4 |
